# Active and inactive are the calls of the source. No rule for the calls is given here.
# Tested on: CCRIS mutagenicity, Ames/micronucleus/aberration tests
# Experiment: CCRIS mutagenicity studies
# [1] = Test System: AMES SALMONELLA TYPHIMURIUM, Strain/Indicator: TA98, Metabolic Activation: NONE, Method: STANDARD PLATE
# [2] = Test System: AMES SALMONELLA TYPHIMURIUM, Strain/Indicator: TA100, Metabolic Activation: NONE, Method: STANDARD PLATE
smiles,measurement,setting,value
Nc1ncc([N+](=O)[O-])s1,mutagenic call,"Test System: AMES SALMONELLA TYPHIMURIUM, Strain/Indicator: TA98, Metabolic Activation: HAMSTER, LIVER, S-9, AROCLOR 1254, Method: STANDARD PLATE",inactive; negative
same,mutagenic call,"Test System: AMES SALMONELLA TYPHIMURIUM, Strain/Indicator: TA98, Metabolic Activation: HAMSTER, LIVER, S-9, Method: STANDARD PLATE",inactive; negative
same,mutagenic call,"Test System: AMES SALMONELLA TYPHIMURIUM, Strain/Indicator: TA98, Metabolic Activation: MOUSE, LIVER, S-9, AROCLOR 1254, Method: STANDARD PLATE",inactive; negative
same,mutagenic call,"Test System: AMES SALMONELLA TYPHIMURIUM, Strain/Indicator: TA98, Metabolic Activation: MOUSE, LIVER, S-9, Method: STANDARD PLATE",inactive; negative
same,mutagenic call,[1],inactive; negative
same,mutagenic call,"Test System: AMES SALMONELLA TYPHIMURIUM, Strain/Indicator: TA98, Metabolic Activation: RAT, LIVER, S-9, AROCLOR 1254, Method: STANDARD PLATE",inactive; negative
same,mutagenic call,"Test System: AMES SALMONELLA TYPHIMURIUM, Strain/Indicator: TA98, Metabolic Activation: RAT, LIVER, S-9, Method: STANDARD PLATE",inactive; negative
same,mutagenic call,"Test System: AMES SALMONELLA TYPHIMURIUM, Strain/Indicator: TA100, Metabolic Activation: HAMSTER, LIVER, S-9, AROCLOR 1254, Method: STANDARD PLATE",inactive; negative
same,mutagenic call,[2],inactive; negative
same,mutagenic call,"Test System: AMES SALMONELLA TYPHIMURIUM, Strain/Indicator: TA1535, Metabolic Activation: HAMSTER, LIVER, S-9, AROCLOR 1254, Method: STANDARD PLATE",inactive; negative
same,mutagenic call,"Test System: AMES SALMONELLA TYPHIMURIUM, Strain/Indicator: TA1535, Metabolic Activation: HAMSTER, LIVER, S-9, Method: STANDARD PLATE",inactive; negative
same,mutagenic call,"Test System: AMES SALMONELLA TYPHIMURIUM, Strain/Indicator: TA1535, Metabolic Activation: MOUSE, LIVER, S-9, AROCLOR 1254, Method: STANDARD PLATE",inactive; negative
same,mutagenic call,"Test System: AMES SALMONELLA TYPHIMURIUM, Strain/Indicator: TA1535, Metabolic Activation: MOUSE, LIVER, S-9, Method: STANDARD PLATE",inactive; negative
same,mutagenic call,"Test System: AMES SALMONELLA TYPHIMURIUM, Strain/Indicator: TA1535, Metabolic Activation: NONE, Method: STANDARD PLATE",inactive; negative
same,mutagenic call,"Test System: AMES SALMONELLA TYPHIMURIUM, Strain/Indicator: TA1535, Metabolic Activation: RAT, LIVER, S-9, AROCLOR 1254, Method: STANDARD PLATE",inactive; negative
same,mutagenic call,"Test System: AMES SALMONELLA TYPHIMURIUM, Strain/Indicator: TA1535, Metabolic Activation: RAT, LIVER, S-9, Method: STANDARD PLATE",inactive; negative
same,mutagenic call,"Test System: AMES SALMONELLA TYPHIMURIUM, Strain/Indicator: TA1537, Metabolic Activation: HAMSTER, LIVER, S-9, AROCLOR 1254, Method: STANDARD PLATE",inactive; negative
same,mutagenic call,"Test System: AMES SALMONELLA TYPHIMURIUM, Strain/Indicator: TA1537, Metabolic Activation: HAMSTER, LIVER, S-9, Method: STANDARD PLATE",inactive; negative
same,mutagenic call,"Test System: AMES SALMONELLA TYPHIMURIUM, Strain/Indicator: TA1537, Metabolic Activation: MOUSE, LIVER, S-9, AROCLOR 1254, Method: STANDARD PLATE",inactive; negative
same,mutagenic call,"Test System: AMES SALMONELLA TYPHIMURIUM, Strain/Indicator: TA1537, Metabolic Activation: MOUSE, LIVER, S-9, Method: STANDARD PLATE",inactive; negative
same,mutagenic call,"Test System: AMES SALMONELLA TYPHIMURIUM, Strain/Indicator: TA1537, Metabolic Activation: NONE, Method: STANDARD PLATE",inactive; negative
same,mutagenic call,"Test System: AMES SALMONELLA TYPHIMURIUM, Strain/Indicator: TA1537, Metabolic Activation: RAT, LIVER, S-9, AROCLOR 1254, Method: STANDARD PLATE",inactive; negative
same,mutagenic call,"Test System: AMES SALMONELLA TYPHIMURIUM, Strain/Indicator: TA1537, Metabolic Activation: RAT, LIVER, S-9, Method: STANDARD PLATE",inactive; negative
same,mutagenic call,"Test System: AMES SALMONELLA TYPHIMURIUM, Strain/Indicator: TA1538, Metabolic Activation: HAMSTER, LIVER, S-9, AROCLOR 1254, Method: STANDARD PLATE",inactive; negative
same,mutagenic call,"Test System: AMES SALMONELLA TYPHIMURIUM, Strain/Indicator: TA1538, Metabolic Activation: HAMSTER, LIVER, S-9, Method: STANDARD PLATE",inactive; negative
same,mutagenic call,"Test System: AMES SALMONELLA TYPHIMURIUM, Strain/Indicator: TA1538, Metabolic Activation: MOUSE, LIVER, S-9, AROCLOR 1254, Method: STANDARD PLATE",inactive; negative
same,mutagenic call,"Test System: AMES SALMONELLA TYPHIMURIUM, Strain/Indicator: TA1538, Metabolic Activation: MOUSE, LIVER, S-9, Method: STANDARD PLATE",inactive; negative
same,mutagenic call,"Test System: AMES SALMONELLA TYPHIMURIUM, Strain/Indicator: TA1538, Metabolic Activation: NONE, Method: STANDARD PLATE",inactive; negative
same,mutagenic call,"Test System: AMES SALMONELLA TYPHIMURIUM, Strain/Indicator: TA1538, Metabolic Activation: RAT, LIVER, S-9, AROCLOR 1254, Method: STANDARD PLATE",inactive; negative
same,mutagenic call,"Test System: AMES SALMONELLA TYPHIMURIUM, Strain/Indicator: TA1538, Metabolic Activation: RAT, LIVER, S-9, Method: STANDARD PLATE",inactive; negative
same,mutagenic call,"Test System: E. COLI, Strain/Indicator: WP2 UVRA, Metabolic Activation: HAMSTER, LIVER, S-9, AROCLOR 1254, Method: STANDARD PLATE",inactive; negative
same,mutagenic call,"Test System: E. COLI, Strain/Indicator: WP2 UVRA, Metabolic Activation: HAMSTER, LIVER, S-9, Method: STANDARD PLATE",inactive; negative
same,mutagenic call,"Test System: E. COLI, Strain/Indicator: WP2 UVRA, Metabolic Activation: MOUSE, LIVER, S-9, AROCLOR 1254, Method: STANDARD PLATE",inactive; negative
same,mutagenic call,"Test System: E. COLI, Strain/Indicator: WP2 UVRA, Metabolic Activation: MOUSE, LIVER, S-9, Method: STANDARD PLATE",inactive; negative
same,mutagenic call,"Test System: E. COLI, Strain/Indicator: WP2 UVRA, Metabolic Activation: NONE, Method: STANDARD PLATE",inactive; negative
same,mutagenic call,"Test System: E. COLI, Strain/Indicator: WP2 UVRA, Metabolic Activation: RAT, LIVER, S-9, AROCLOR 1254, Method: STANDARD PLATE",inactive; negative
same,mutagenic call,"Test System: E. COLI, Strain/Indicator: WP2 UVRA, Metabolic Activation: RAT, LIVER, S-9, Method: STANDARD PLATE",inactive; negative
same,mutagenic call,"Test System: MOUSE LYMPHOMA, Strain/Indicator: L5178Y (TK+/TK-), Metabolic Activation: NONE, Method: SUSPENSION/PLATE",active; positive
same,mutagenic call,"Test System: MOUSE LYMPHOMA, Strain/Indicator: L5178Y (TK+/TK-), Metabolic Activation: RAT, LIVER, S-9, AROCLOR 1254, Method: SUSPENSION/PLATE",active; positive
O=c1[nH]c(=O)n([C@H]2C[C@H](O)[C@@H](CO)O2)cc1Br,mutagenic call,[1],inactive; negative
same,mutagenic call,"Test System: AMES SALMONELLA TYPHIMURIUM, Strain/Indicator: TA98, Metabolic Activation: S-9, Method: STANDARD PLATE",inactive; negative
same,mutagenic call,[2],inactive; negative
same,mutagenic call,"Test System: AMES SALMONELLA TYPHIMURIUM, Strain/Indicator: TA100, Metabolic Activation: S-9, Method: STANDARD PLATE",inactive; negative
same,mutagenic call,"Test System: AMES SALMONELLA TYPHIMURIUM, Strain/Indicator: TA1537, Metabolic Activation: S-9, Method: STANDARD PLATE",inactive; negative
same,mutagenic call,"Test System: CHINESE HAMSTER V-79, Strain/Indicator: V-79/6-THIOGUANINE, Metabolic Activation: NONE, Method: STANDARD PLATE",active; positive
same,mutagenic call,"Test System: CHINESE HAMSTER V-79, Strain/Indicator: V-79/8-AZAGUANINE, Metabolic Activation: NONE, Method: STANDARD PLATE",active; positive
same,mutagenic call,"Test System: E. COLI, Strain/Indicator: WP2 (HCR), Metabolic Activation: NONE, Method: STANDARD PLATE",inactive; negative
same,mutagenic call,"Test System: E. COLI, Strain/Indicator: WP2 (HCR), Metabolic Activation: S-9, Method: STANDARD PLATE",inactive; negative
O=[N+]([O-])c1ccc(CO)c([N+](=O)[O-])c1,mutagenic call,"Test System: AMES SALMONELLA TYPHIMURIUM, Strain/Indicator: TA98, Metabolic Activation: NONE, Method: PREINCUBATION",active; positive
same,mutagenic call,"Test System: AMES SALMONELLA TYPHIMURIUM, Strain/Indicator: TA98, Metabolic Activation: RAT, LIVER, S-9, AROCLOR, Method: PREINCUBATION",active; positive
same,mutagenic call,"Test System: AMES SALMONELLA TYPHIMURIUM, Strain/Indicator: TA98, Metabolic Activation: RAT, LIVER, S-9, PHENOBARBITAL AND 5,6-BENZOFLAVONE, Method: PREINCUBATION",active; positive
same,mutagenic call,"Test System: AMES SALMONELLA TYPHIMURIUM, Strain/Indicator: TA100, Metabolic Activation: NONE, Method: PREINCUBATION",active; positive
same,mutagenic call,"Test System: AMES SALMONELLA TYPHIMURIUM, Strain/Indicator: TA100, Metabolic Activation: RAT, LIVER, S-9, PHENOBARBITAL AND 5,6-BENZOFLAVONE, Method: PREINCUBATION",active; positive
